Results reported in publication PMC4673972 (Bioinformatics, 2015).

Columns and labels:
[1] = target: Bcl-2 (B-cell lymphoma 2) (Homo sapiens, UniProt P10415); assay: intrinsic tryptophan fluorescence quenching; format: binding
[2] = target: B-cell lymphoma 2 (Bcl-2) (UniProt P10415); assay: fluorescence polarisation
Sequence of B-cell lymphoma 2 (Bcl-2) (P10415 whole entry): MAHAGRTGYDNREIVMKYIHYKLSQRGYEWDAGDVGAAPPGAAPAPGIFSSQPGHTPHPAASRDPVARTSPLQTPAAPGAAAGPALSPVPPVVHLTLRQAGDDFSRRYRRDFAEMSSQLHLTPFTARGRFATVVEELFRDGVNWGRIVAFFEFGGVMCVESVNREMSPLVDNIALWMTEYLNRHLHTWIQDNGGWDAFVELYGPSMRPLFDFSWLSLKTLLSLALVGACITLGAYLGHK

Sequence of Bcl-2 (B-cell lymphoma 2) (P10415 whole entry): as above

Compound | Kd [1] [µM] | Kd [2] [µM]
CC(C)(COP(=O)(O)OP(=O)(O)OC[C@H]1O[C@@H](n2cnc3c(N)ncnc32)[C@H](O)[C@@H]1OP(=O)(O)O)[C@@H](O)C(=O)NCCC(=O)NCCS [CoA] | 380 ± 80 | –
fluorescent-labeled Bax-BH3 peptide | – | 0.128
